Data set [1] concerns COS-7 cells. The experiment in a line: Luciferase reporter gene transfection of COS-7 cells. The data set is classed as cell-based. To be noted: 200 μm chloroquine. How it is done:
(§1) 5 μg of a luciferase reporter gene plasmid (pGL2 promega) was complexed with either the RGD-polylysine construct (possible structure of complex is shown in FIG. 1) or an equal concentration of polylysine in 100 μl of Optimem media (Gibco). The DNA/peptide complexes and also a DNA only control were then applied to 50% confluent cultured (Caco-2) colonic epithelial cells which were then allowed to express for 48 hours. The cells were then harvested and the cellular protein analysed for luciferase activity (Relative Light Units). The activity shown in FIG. 2 is adjusted to represent activity from 1 mg of cellular protein. In FIG. 2 the term "RGD peptide" is used to indicate the polylysine-integrin receptor binding protein described in Example 1.
The polylysine-integrin receptor binding peptide of Example 1 was again used. Essentially the methodology of Example 2 was followed with the substitution of COS-7 cells, and the use of different concentrations of chloroquine. It can be seen that 200 μm chloroquine gave a 4-fold increase of expression, compared with no chloroquine.
The methodology of Example 2 was repeated using COS-7 cells. In this experiment, different ratios of the K16 RGD peptide DNA were used with and without 100 μm chloroquine, with the results shown in FIG. 7. It can be seen that the optimum ratio was 37.5:1 in both the absence and presence of chloroquine.
In general terms: Reporter assays use an easily measured gene product as a stand-in for the process of interest.

The test system of data set [2] is (Caco-2) colonic epithelial cells. The experiment in a line: Luciferase reporter gene (pGL2) internalisation and expression in Caco-2 cells. Format: cell-based. Conditions: 5 μg pGL2 plasmid. On the procedure:
as §1
The procedure described in Example 2 was repeated but using the polylysine-integrin receptor binding peptide described in Example 3 instead of the polylysine-integrin receptor binding peptide described in Example 1. Control experiments were also performed.
The polylysine-integrin receptor binding peptide of Example 1 was used in a repeat of the procedure of Example 2, but using 1 μg of luciferase reporter gene plasmid. The effect of chloroquine was also investigated.

Consider `CCN(CC)CCCC(C)Nc1ccnc2cc(Cl)ccc12` (stereo not drawn) [chloroquine], for which, in data set [1], the cytopathic effects result was “cytopathic effects of chloroquine were apparent”.
Turning to (K)16 GGCRGDMFGCA [Example 3], in data set [2] (100 μM chloroquine vs no chloroquine), the “improvement of expression by addition of chloroquine” value is listed as about 2 fold. Further, the “optimal peptide-DNA transfection efficiency (luciferase activity, Relative Light Units per mg cellular protein)” value in data set [2] (absence of chloroquine, 48 hours expression, indirect comparison of FIG. 2 and FIG. 3) is recorded as ~6×10^7 RLU/mg.
